Results: US20050245399A1, “Pyrazole derivatives as herbicidal compositions containing them” (ISHIHARA SANGYO KAISHA, LTD., priority 2004, published 2005)

Tests used:
Format in all cases: in vivo
[1] = test system: barnyardgrass (Echinochloa crus-galli L.): ECHCG; assay: Test Example 1 pre-emergence herbicidal activity, ECHCG; conditions: Rate 63 g a.i./ha, visually observed 20th to 23rd day after application
Procedure, shortened: (§1)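 Compound was delivered by small sprayer to sown upland soil one day after sowing, before emergence, at 500 L/ha spray volume. Plant growth was assessed visually around 3 weeks later (days 20–23), 100% denoting complete kill.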

[2] = test system: redroot pigweed (Amaranthus retroflexus L.): AMARE; assay: Test Example 1 pre-emergence herbicidal activity, AMARE; conditions: Rate 63 g a.i./ha, visually observed 20th to 23rd day after application
Procedure, shortened: as §1

[3] = test system: prickly sida (Sida spinosa L.): SEDSP; assay: Test Example 1 pre-emergence herbicidal activity, SIDSP; conditions: Rate 63 g a.i./ha, visually observed 20th to 23rd day after application
Procedure, shortened: as §1

[4] = test system: wheat (Triticum aestivum L.): TRZAX; assay: Test Example 1 pre-emergence herbicidal activity, TRZAX; conditions: Rate 63 g a.i./ha, visually observed 20th to 23rd day after application
Procedure, shortened: as §1

[5] = test system: corn (Zea mays L.): ZEAMX; assay: Test Example 1 pre-emergence herbicidal activity, ZEAMX; conditions: Rate 63 g a.i./ha, visually observed 20th to 23rd day after application
Procedure, shortened: as §1

[6] = test system: barnyardgrass (Echinochloa crus-galli L.), ECHCG; assay: Test Example 2 post-emergence (foliage treatment) herbicidal activity, ECHCG
Procedure, shortened: (§2)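 Greenhouse pot test with upland field soil. Treatment: foliage spray, active ingredient at a predetermined amount, 500 L/ha, spreader 0.1% (v/v); leaf stage 0.1-1.5 (AMARE), 1.1-2.1 (ECHCG), 1.0-2.0 (DIGSA), 1.0-2 (ORYSA). Endpoint: visual % control, d20-23.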

[7] = test system: crabgrass (Digitaria sanguinalis L.), DIGSA; assay: Test Example 2 post-emergence (foliage treatment) herbicidal activity, DIGSA
Procedure, shortened: as §2

[8] = test system: green foxtail (Setaria viridis L.), SETVI; assay: Test Example 2 post-emergence (foliage treatment) herbicidal activity, SETVI
Procedure, shortened: (§3)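 Foliar spray of formulated compound (500 L/ha dilution water, 0.1% v/v spreader) onto young potted plants at defined leaf stages. Scored 0-100% by visual inspection 20-23 d post-spray.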

[9] = test system: prickly sida (Sida spinosa L.), SIDSP; assay: Test Example 2 post-emergence (foliage treatment) herbicidal activity, SIDSP
Procedure, shortened: as §3

[10] = test system: velvetleaf (Abutilon theophrasti), ABUTH; assay: Test Example 2 post-emergence (foliage treatment) herbicidal activity, ABUTH
Procedure, shortened: as §3

[11] = test system: common cocklebur (Xanthium strumarium L.), XANST; assay: Test Example 2 post-emergence (foliage treatment) herbicidal activity, XANST
Source text: Upland field soil was put into a 1/170,000 ha pot, and seeds of various plants were sown. Then, when the plants reached predetermined leaf stages {1. barnyardgrass (Echinochloa crus-galli L.), ECHCG: 1.1-2.1 leaf stage, 2. crabgrass (Digitaria sanguinalis L.), DIGSA: 1.0-2.0 leaf stage, 3. green foxtail (Setaria viridis L.), SETVI: 1.0-2.2 leaf stage, 4. redroot pigweed (Amaranthus retroflexus L.), AMARE: 0.1-1.5 leaf stage, 5. prickly sida (Sida spinosa L.), SIDSP: 0.1-0.6 leaf stage, 6. velvetleaf (Abutilon theophrasti), ABUTH: 0.1-0.6 leaf stage, 7. common cocklebur (Xanthium strumarium L.), XANST: 0.1 leaf stage, 8. rice (Oryza sativa L.), ORYSA; 1.0-2 leaf stage, 9. wheat (Triticum aestivum L.), TRZAX: 2.3-3.5 leaf stage, 10. corn (Zea mays L.), ZEAMXN 2.1-2.6 leaf stage, 11. soybean (Glycine max Merr.), GLXMA: primary leaf stage}, a wettable powder or emulsifiable concentrate having the compound of the present invention formulated in accordance with a usual formulation method, was weighed so that the active ingredient would be a predetermined amount, and diluted with water in an amount of 500 L/ha. To the diluted solution, 0.1% (v/v) of an agricultural spreader was added. The herbicide adjusted was applied by a small size sprayer for foliage treatment. On the 20th to 23rd day after the application of the herbicide, the growth of the respective plants was visually observed, and the herbicidal effects were evaluated by growth controlling degrees (%) ranging from 0 (equivalent to the untreated control) to 100 (complete kill), whereby the results shown in Table 5, were obtained. Compound Nos. in Table 5 correspond to Compound Nos. in Table 1 and 2 given hereinbefore.

[12] = test system: rice (Oryza sativa L.), ORYSA; assay: Test Example 2 post-emergence (foliage treatment) herbicidal activity, ORYSA
Procedure, shortened: as §2

[13] = test system: soybean (Glycine max Merr.), GLXMA; assay: Test Example 2 post-emergence (foliage treatment) herbicidal activity, GLXMA
Procedure, shortened: as §3

Row | Compound | Pre-emergence Herbicidal Activity ECHCG (growth controlling degree) [1] [%] | Pre-emergence Herbicidal Activity AMARE (growth controlling degree) [2] [%] | Pre-emergence Herbicidal Activity SIDSP (growth controlling degree) [3] [%] | Pre-emergence Herbicidal Activity TRZAX (growth controlling degree) [4] [%] | Pre-emergence Herbicidal Activity ZEAMX (growth controlling degree) [5] [%] | growth controlling degree, ECHCO ([6]; 63 g a.i./ha) [%] | growth controlling degree, DIGSP ([7]; 63 g a.i./ha) [%] | growth controlling degree, SETVI ([8]; 63 g a.i./ha) [%] | growth controlling degree, SIDSP ([9]; 63 g a.i./ha) [%] | growth controlling degree, ABUTH ([10]; 63 g a.i./ha) [%] | growth controlling degree, XANST ([11]; 63 g a.i./ha) [%] | growth controlling degree, ORYSA ([12]; 63 g a.i./ha) [%] | growth controlling degree, GLXMA ([13]; 63 g a.i./ha) [%] | other results
1 | COc1c(Cl)cc(F)c(-c2nn(C)c(OC(F)F)c2Cl)c1NC(C)C [Compound 1-59] | 60 | 100 | 100 | 30 | 10 | 100 | 98 | 100 | 100 | 100 | 100 | 40 | 95 | –
2 | COc1c(Cl)cc(F)c(-c2nn(C)c(OC(F)F)c2Cl)c1N(C=O)CC(=O)c1ccc(Cl)cc1 [Compound 1-13] | 80 | 100 | 100 | 30 | 40 | 80 | 70 | 90 | 100 | 100 | 50 | 70 | 50 | –
3 | Cn1nc(-c2c(F)cc(Cl)c(OC(F)F)c2N)c(Cl)c1OC(F)F [Compound 1-81, 3-chloro-6-[4-chloro-5-(difluoromethoxy)-1-methyl-1H-pyrazol-3-yl]-2-(difluoromethoxy)-5-fluorobenzenamine] | 90 | 100 | 100 | 20 | 10 | – | – | – | – | – | – | – | – | growth controlling degree, ECHCO ([6]; 125 g a.i./ha): 100%; growth controlling degree, DIGSP ([7]; 125 g a.i./ha): 100%; growth controlling degree, SETVI ([8]; 125 g a.i./ha): 100%; growth controlling degree, SIDSP ([9]; 125 g a.i./ha): 100%; growth controlling degree, ABUTH ([10]; 125 g a.i./ha): 100%; growth controlling degree, XANST ([11]; 125 g a.i./ha): 100%; growth controlling degree, ORYSA ([12]; 125 g a.i./ha): 70%; growth controlling degree, GLXMA ([13]; 125 g a.i./ha): 80%
4 | COc1c(Cl)cc(F)c(-c2nn(C)c(OC(F)F)c2Cl)c1N(C=O)CC(C)=O [Compound 1-14] | 98 | 100 | 100 | 40 | 40 | 98 | 98 | 100 | 100 | 100 | 100 | 40 | 60 | –
5 | COc1c(Cl)cc(F)c(-c2nn(C)c(OC(F)F)c2Cl)c1N(C=O)C1CCCC1 [Compound 1-10] | 90 | 100 | 100 | 40 | 40 | 90 | 60 | 100 | 100 | 100 | 100 | 70 | 50 | –
6 | COc1c(Cl)cc(F)c(-c2nn(C)c(OC(F)F)c2Cl)c1N(C(=O)C=C(C)C)C(=O)C=C(C)C [Compound 1-11] | 70 | 100 | 100 | 20 | 30 | 70 | 40 | 100 | 100 | 100 | 30 | 40 | 50 | –
7 | COc1c(Cl)cc(F)c(-c2nn(C)c(OC(F)F)c2Cl)c1NC1CCCC1 [Compound 1-60] | 0 | 95 | 0 | 0 | 0 | 100 | 80 | 100 | 100 | 100 | 100 | 40 | 70 | –
8 | CNc1c(OC)c(Cl)cc(F)c1-c1nn(C)c(OC(F)F)c1Cl [Compound 1-58] | 100 | 100 | 100 | 10 | 0 | 100 | 100 | 100 | 100 | 100 | 100 | 70 | 95 | –
9 | COc1c(Cl)cc(F)c(-c2nn(C)c(OC(F)F)c2Cl)c1NC(=O)C=C(C)C [Compound 1-9] | 80 | 100 | 100 | 40 | 70 | 80 | 98 | 100 | 100 | 100 | 70 | 80 | 90 | –
10 | COc1c(Cl)cc(F)c(-c2nn(C)c(OC(F)F)c2Cl)c1N(C)C=O [Compound 1-6] | 20 | 100 | 40 | 20 | 30 | 60 | 70 | 100 | 100 | 100 | 95 | 40 | 90 | –
